Experimental data: patent US20240368157A1, “FORMS AND COMPOSITIONS OF A JAK2 INHIBITOR” (Ajax Therapeutics, Inc., priority 2023, published 2024)
Converted amounts (≈) assume the structure as drawn. Marks after values point to notes of the source that are not given here. Blank lines part the entries; values can stand above or below the molecule they belong to.

Legend:
[1] = Approximate solubility estimates (solvent incremental addition, visual observation); type: physicochemical; details: for solubility: thermodynamic from solid
Method: Approximate solubility estimates of Compound 1 Lot I were ascertained using the solvent incremental addition method and visual observation (Table 2.1). […] Approximate solubilities were calculated based on the total solvent used to achieve a solution, as judged by visual observation. Actual solubilities may be greater because of the volume of solvent portions utilized or a slow rate of dissolution. […] If dissolution occurred at the first aliquot, the value was reported as “>”

[2] = Exposure experiments at high relative humidity; type: physicochemical; details: RT, 17 days
Method: In a series of exposure experiments, Compound 1 Lot I was exposed to high relative humidity. Generally, approx. 50 mg Compound 1 was transferred to vials, and the vials were placed open in chambers containing saturated aqueous solutions of various salts, which are known to generate various relative humidity levels in the chambers. See, e.g., “Standard Practice for Maintaining Constant Relative Humidity by Means of Aqueous Solutions” ASTM Standard E 104-85 (1996); “Humidity Fixed Points of Binary Saturated Aqueous Solutions” Greenspan, L. J. Res. Natl. Bur. Stand., Sect. A […], 81A, 89-96; “Saturated Salt Solutions for Maintaining Specified Relative Humidities” Nyqvist, H. E. Int. J. Pharma. Technol. Prod. Manuf. 1983, 4, 47-48; and “Evaluation of Relative Humidity Values for Saturated Aqueous Salt Solutions Using Osmotic Coefficients Between 50 and 100° C.” Moisture Humidity, Proc. Int. Symp. 1985, 577-96.

[3] = Interconversion slurry experiments; details: interconversion slurries, ambient temperature to 65° C.
Method: Mixtures of Form H and Form I with Form B were utilized in these interconversion slurry experiments. […] The interconversion slurries were performed at ambient and elevated (65° C.) temperatures in various solvents and solvent mixtures.

physchem = details: water
[4] = Dynamic vapor sorption (DVS); type: physicochemical; details: for Hysteresis: in % (unit assumed); for weight gain during sorption: 5-95% RH; for XRPD pattern of the post-DVS sample: after DVS experiment; for hygroscopicity: judged from DVS sorption/desorption
Method: Moisture sorption/desorption data were collected on a Surface Measurement System DVS Intrinsic instrument. Samples were not dried prior to analysis. Sorption and desorption data were collected over a range from 5% to 95% RH to 5% RH at 10% RH increments under a nitrogen purge. The equilibrium criterion used for analysis was less than 0.0100% weight change in 5 minutes with a maximum equilibration time of 3 hours. Data were not corrected for the initial moisture content of the samples.

[5] = Slurry in water at ambient temperature (XRPD); type: physicochemical
[6] = Stability stress studies on Form B (RH/temperature exposure, XRPD); type: physicochemical
Method: Stability stress studies were conducted on Form B by exposing samples to three conditions: 57.5% RH/RT; 97.3% RH/RT, and 75% RH/40° C. and collecting XRPD data at two time points (14 and 28 days).

- solubility ([1]; 2-butanone (MEK), organic solvent or mixture, 2-butanone (MEK), ambient, read-out: Solubility): 1000 µg/mL (≈ 1900 µM)
- Solubility (mg/mL) ([1]; AcOH, ambient): >59^b mg/mL
- solubility ([1]; AcOH:H2O (20:80), aqueous with cosolvent or surfactant or cyclodextrin, AcOH:H2O (20:80), aw = 0.94, ambient, read-out: Solubility): 1000 µg/mL (≈ 1900 µM)
- solubility ([1]; AcOH:H2O (50:50), aqueous with cosolvent or surfactant or cyclodextrin, AcOH:H2O (50:50), aw = 0.84, ambient, read-out: Solubility): 14000 µg/mL (≈ 26500 µM)
- solubility ([1]; AcOH:H2O (85:15), organic solvent or mixture, AcOH:H2O (85:15), aw = 0.51, ambient, read-out: Solubility): > 51000 µg/mL
- solubility ([1]; CHCl3, organic solvent or mixture, CHCl3, ambient, read-out: Solubility): 2000 µg/mL (≈ 3790 µM)
- solubility ([1]; DMA, organic solvent or mixture, DMA, ambient, read-out: Solubility): 8000 µg/mL (≈ 15200 µM)
- solubility ([1]; DMSO, organic solvent or mixture, DMSO, ambient, read-out: Solubility): 6000 µg/mL (≈ 11400 µM)
- solubility ([1]; EtOAc, organic solvent or mixture, EtOAc, ambient, read-out: Solubility): < 1000 µg/mL
- solubility ([1]; EtOH:H2O (90:10), organic solvent or mixture, EtOH:H2O (90:10), aw = 0.49, ambient, read-out: Solubility): 1000 µg/mL (≈ 1900 µM)
- solubility ([1]; MIBK, organic solvent or mixture, MIBK, ambient, read-out: Solubility): < 1000 µg/mL
- solubility ([1]; MeCN, organic solvent or mixture, MeCN, ambient, read-out: Solubility): < 1000 µg/mL
- solubility ([1]; MeOH, organic solvent or mixture, MeOH, ambient, read-out: Solubility): < 1000 µg/mL
- solubility ([1]; MeOH:CHCl3 (50:50), organic solvent or mixture, MeOH:CHCl3 (50:50), ambient, read-out: Solubility): < 1000 µg/mL
- solubility ([1]; MeOH:DCM (1:3), organic solvent or mixture, MeOH:DCM (1:3), ambient, read-out: Solubility): 37000 µg/mL (≈ 70100 µM)
- solubility ([1]; MeOH:H2O (90:10), organic solvent or mixture, MeOH:H2O (90:10), aw = 0.29, ambient, read-out: Solubility): 1000 µg/mL (≈ 1900 µM)
- solubility ([1]; NMP, organic solvent or mixture, NMP, ambient, read-out: Solubility): 8000 µg/mL (≈ 15200 µM)
- solubility ([1]; TFE, organic solvent or mixture, TFE, ambient, read-out: Solubility): 17000 µg/mL (≈ 32200 µM)
- solubility ([1]; THF, organic solvent or mixture, THF, ambient, read-out: Solubility): < 1000 µg/mL
- solubility ([1]; acetic acid (AcOH), organic solvent or mixture, AcOH, ambient, read-out: Solubility): > 59000 µg/mL
- solubility ([1]; acetone, organic solvent or mixture, Acetone, ambient, read-out: Solubility): 1000 µg/mL (≈ 1900 µM)
- solubility ([1]; acetone:H2O (90:10), organic solvent or mixture, acetone:H2O (90:10), aw = 0.69, ambient, read-out: Solubility): 2000 µg/mL (≈ 3790 µM)
- solubility ([1]; i-PrOH, organic solvent or mixture, i-PrOH, ambient, read-out: Solubility): < 1000 µg/mL
- solubility ([1]; organic solvent or mixture, 10% water added to acetone, ethanol, and methanol, ambient, read-out: solubility after addition of 10% water): 1000 to 2000 µg/mL (≈ 1900 to 3790 µM)
- solubility ([1]; organic solvent or mixture, in acetone, chloroform, MEK, and aprotic solvents DMSO, DMAc, and NMP, ambient, read-out: limited solubility): 1000 to 8000 µg/mL (≈ 1900 to 15200 µM)
- solubility ([1]; toluene, organic solvent or mixture, toluene, ambient, read-out: Solubility): < 1000 µg/mL
- solubility ([1]; water, H2O, ambient, read-out: Solubility): < 1000 µg/mL
- XRPD Result ([2]; 75% RH): Forms B + C + larger peaks
- weight gain ([2]; 75% RH): 0.56% weight gain
- XRPD Result ([2]; 97% RH): Forms B + C + peaks
- weight gain ([2]; 97% RH): 0.71% weight gain
SMILES: CN(C)C(=O)Nc1cc(Oc2cnc3nc(Nc4cc(C(F)(F)F)cn(C)c4=O)n(C)c3c2C#N)ccn1 [Compound 1 Lot I]

- relative stability of anhydrous forms ([3]; listed as Compound 1 Form I): metastable form with respect to Form B
SMILES: CN(C)C(=O)Nc1cc(Oc2cnc3nc(Nc4cc(C(F)(F)F)cn(C)c4=O)n(C)c3c2C#N)ccn1 [Form I]

- solubility (physchem): < 1000 µg/mL
- Desorp Mass Change (%) ([4]; DVS cycle 1, target RH 5%): −0.2589%
- Sorp Mass Change (%) ([4]; DVS cycle 1, target RH 5%): 0.0100%
- Desorp Mass Change (%) ([4]; DVS cycle 1, target RH 15%): −0.2193%
- Sorp Mass Change (%) ([4]; DVS cycle 1, target RH 15%): −0.0114%
- Hysteresis ([4]; DVS cycle 1, target RH 15%): −0.2079
- Desorp Mass Change (%) ([4]; DVS cycle 1, target RH 25%): −0.1841%
- Sorp Mass Change (%) ([4]; DVS cycle 1, target RH 25%): −0.0296%
- Hysteresis ([4]; DVS cycle 1, target RH 25%): −0.1545
- Desorp Mass Change (%) ([4]; DVS cycle 1, target RH 35%): −0.1477%
- Sorp Mass Change (%) ([4]; DVS cycle 1, target RH 35%): −0.0296%
- Hysteresis ([4]; DVS cycle 1, target RH 35%): −0.1181
- Desorp Mass Change (%) ([4]; DVS cycle 1, target RH 45%): −0.1031%
- Sorp Mass Change (%) ([4]; DVS cycle 1, target RH 45%): −0.0202%
- Hysteresis ([4]; DVS cycle 1, target RH 45%): −0.0829
- Desorp Mass Change (%) ([4]; DVS cycle 1, target RH 55%): −0.0428%
- Sorp Mass Change (%) ([4]; DVS cycle 1, target RH 55%): 0.0018%
- Hysteresis ([4]; DVS cycle 1, target RH 55%): −0.0446
- Desorp Mass Change (%) ([4]; DVS cycle 1, target RH 65%): 0.0238%
- Sorp Mass Change (%) ([4]; DVS cycle 1, target RH 65%): 0.0282%
- Hysteresis ([4]; DVS cycle 1, target RH 65%): −0.0044
- Desorp Mass Change (%) ([4]; DVS cycle 1, target RH 75%): 0.0797%
- Sorp Mass Change (%) ([4]; DVS cycle 1, target RH 75%): 0.0741%
- Hysteresis ([4]; DVS cycle 1, target RH 75%): 0.0057
- Desorp Mass Change (%) ([4]; DVS cycle 1, target RH 85%): 0.1545%
- Sorp Mass Change (%) ([4]; DVS cycle 1, target RH 85%): 0.1344%
- Hysteresis ([4]; DVS cycle 1, target RH 85%): 0.0201
- Desorp Mass Change (%) ([4]; DVS cycle 1, target RH 95%): 0.2669%
- Sorp Mass Change (%) ([4]; DVS cycle 1, target RH 95%): 0.2669%
- weight gain during sorption ([4]; DVS): 0.3%
- weight loss during the desorption step ([4]; DVS, 95-5% RH): 0.5%
- XRPD pattern of the post-DVS sample [4]: consistent with Form F
- hygroscopicity [4]: non-hygroscopic
- solid form after slurry in water (XRPD) ([5]; 3 days): converted completely to Form C
SMILES: CN(C)C(=O)Nc1cc(Oc2cnc3nc(Nc4cc(C(F)(F)F)cn(C)c4=O)n(C)c3c2C#N)ccn1 [Form F]

- XRPD Result ([6]; 57.5% RH/RT, 14 days): Form B
- XRPD Result ([6]; 57.5% RH/RT, 28 days): Form B
- stability under stress conditions ([6]; 57.5% RH/RT, 97.3% RH/RT, 75% RH/40° C., 14 and 28 days): stable at the tested stress conditions
- XRPD Result ([6]; 75.3% RH/40° C., 14 days): Form B
- XRPD Result ([6]; 75.3% RH/40° C., 28 days): Form B
- XRPD Result ([6]; 97.3% RH/RT, 14 days): Form B
- XRPD Result ([6]; 97.3% RH/RT, 28 days): Form B
- Desorp Mass Change (%) ([4]; DVS cycle 1, target RH 5%): −0.0297%
- Sorp Mass Change (%) ([4]; DVS cycle 1, target RH 5%): 0.0003%
- Desorp Mass Change (%) ([4]; DVS cycle 1, target RH 15%): 0.0109%
- Sorp Mass Change (%) ([4]; DVS cycle 1, target RH 15%): 0.0327%
- Hysteresis ([4]; DVS cycle 1, target RH 15%): −0.0218
- Desorp Mass Change (%) ([4]; DVS cycle 1, target RH 25%): 0.048%
- Sorp Mass Change (%) ([4]; DVS cycle 1, target RH 25%): 0.0627%
- Hysteresis ([4]; DVS cycle 1, target RH 25%): −0.0147
- Desorp Mass Change (%) ([4]; DVS cycle 1, target RH 35%): 0.0903%
- Sorp Mass Change (%) ([4]; DVS cycle 1, target RH 35%): 0.0974%
- Hysteresis ([4]; DVS cycle 1, target RH 35%): −0.0071
- Desorp Mass Change (%) ([4]; DVS cycle 1, target RH 45%): 0.1586%
- Sorp Mass Change (%) ([4]; DVS cycle 1, target RH 45%): 0.1439%
- Hysteresis ([4]; DVS cycle 1, target RH 45%): 0.0147
- Desorp Mass Change (%) ([4]; DVS cycle 1, target RH 55%): 0.2045%
- Sorp Mass Change (%) ([4]; DVS cycle 1, target RH 55%): 0.1803%
- Hysteresis ([4]; DVS cycle 1, target RH 55%): 0.0241
- Desorp Mass Change (%) ([4]; DVS cycle 1, target RH 65%): 0.2463%
- Sorp Mass Change (%) ([4]; DVS cycle 1, target RH 65%): 0.2227%
- Hysteresis ([4]; DVS cycle 1, target RH 65%): 0.0235
- weight gain during sorption ([4]; DVS): 0.43%
- XRPD pattern of the post-DVS sample [4]: consistent with Form B
- hygroscopicity [4]: non-hygroscopic
- solid form after slurry in water (XRPD) ([5]; 5 days): remained unchanged
SMILES: CN(C)C(=O)Nc1cc(Oc2cnc3nc(Nc4cc(C(F)(F)F)cn(C)c4=O)n(C)c3c2C#N)ccn1 [Form B]
- relative stability of anhydrous forms [3]: likely the most stable anhydrous form under the tested conditions
